Data from PubChem BioAssay AID330 (DTP/NCI, 2004).
“And” between values parts separate entries of the source, which are not always exact repeats. Equal entries are not always repeated. Inconclusive results and toxic doses are left out.

Tested on: P388 leukemia ip, CD2F1 mice, survival T/C
Assay: NCI In Vivo Anticancer Drug Screen. Data for tumor model P388 Leukemia (intraperitoneal) in CD2F1 (CDF1) mice
Conditions: endpoint: median survival time, higher = longer survival
Outline: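 Mice carrying the transplanted tumor received test compound or vehicle. Survival was recorded in each group, and the value is the treated-group measurement divided by that of the vehicle-treated control group.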

[1] = dose: 60.0 mg/kg/injection, schedule: Q01DX005 (ip), vehicle: saline with Tween-80
[2] = dose: 120.0 mg/kg/injection, schedule: Q01DX005 (ip), vehicle: saline with Tween-80
[3] = dose: 240.0 mg/kg/injection, schedule: Q01DX005 (ip), vehicle: saline with Tween-80
[4] = dose: 50.0 mg/kg/injection, schedule: Q01DX009 (ip), vehicle: saline
[5] = dose: 100.0 mg/kg/injection, schedule: Q01DX009 (ip), vehicle: saline
[6] = dose: 100.0 mg/kg/injection, schedule: Q04DX003 (ip), vehicle: Klucel (hydroxypropylcellulose) (HPC)
[7] = dose: 200.0 mg/kg/injection, schedule: Q04DX003 (ip), vehicle: Klucel (hydroxypropylcellulose) (HPC)
[8] = dose: 50.0 mg/kg/injection, schedule: Q01DX005 (ip), vehicle: saline with Tween-80
[9] = dose: 50.0 mg/kg/injection, schedule: Q01DX005 (ip), vehicle: Klucel (hydroxypropylcellulose) (HPC)
[10] = dose: 100.0 mg/kg/injection, schedule: Q01DX005 (ip), vehicle: Klucel (hydroxypropylcellulose) (HPC)
[11] = dose: 100.0 mg/kg/injection, schedule: Q01DX005 (ip), vehicle: saline with Tween-80
[12] = dose: 200.0 mg/kg/injection, schedule: Q01DX005 (ip), vehicle: saline with Tween-80
[13] = dose: 200.0 mg/kg/injection, schedule: Q01DX009 (ip), vehicle: saline

COc1cc(C(C)c2cc3c(cc2O)OCO3)cc(OC)c1OC (centres undefined)
T/C (dose: 15.0 mg/kg/injection, schedule: Q01DX005 (ip), vehicle: saline with Tween-80): 100 % of control
T/C (dose: 30.0 mg/kg/injection, schedule: Q01DX005 (ip), vehicle: saline with Tween-80): 98 % of control
T/C [1]: 103 % of control and 107 % of control and 108 % of control
T/C [2]: 100 % of control and 114 % of control and 122 % of control
T/C [3]: 123 % of control
T/C (dose: 480.0 mg/kg/injection, schedule: Q01DX005 (ip), vehicle: saline with Tween-80): 86 % of control

CC1(C)NC(C(=O)O)Cc2c1[nH]c1ccccc21 (centres undefined)
T/C (dose: 25.0 mg/kg/injection, schedule: Q01DX009 (ip), vehicle: saline): 102 % of control
T/C [4]: 91 % of control
T/C [5]: 94 % of control

C/C(C(=O)NC1CC1)=C(\C)c1ccc(Br)cc1
T/C (dose: 50.0 mg/kg/injection, schedule: Q04DX003 (ip), vehicle: Klucel (hydroxypropylcellulose) (HPC)): 99 % of control
T/C [6]: 99 % of control
T/C [7]: 98 % of control

CC(NNC(=S)N(C)C1CCCCC1)c1cc2ccccc2cn1 (centres undefined)
T/C (dose: 6.25 mg/kg/injection, schedule: Q01DX005 (ip), vehicle: saline with Tween-80): 107 % of control
T/C (dose: 12.5 mg/kg/injection, schedule: Q01DX005 (ip), vehicle: saline with Tween-80): 120 % of control
T/C [8]: 151 % of control and 159 % of control

COC(=O)C[C@@]1(C(=O)OC)[C@H](C(=O)OC)[C@@H](C(=O)OC)N(C(C)=O)N1C
T/C [9]: 105 % of control
T/C [10]: 105 % of control
T/C (dose: 100.0 mg/kg/injection, schedule: Q04DX002 (ip), vehicle: Klucel (hydroxypropylcellulose) (HPC)): 104 % of control
T/C (dose: 200.0 mg/kg/injection, schedule: Q01DX005 (ip), vehicle: Klucel (hydroxypropylcellulose) (HPC)): 103 % of control
T/C (dose: 200.0 mg/kg/injection, schedule: Q04DX002 (ip), vehicle: Klucel (hydroxypropylcellulose) (HPC)): 95 % of control
T/C (dose: 400.0 mg/kg/injection, schedule: Q04DX002 (ip), vehicle: Klucel (hydroxypropylcellulose) (HPC)): 103 % of control

c1cc[n+](-[b-]2ccc3ccccc3c2)cc1
T/C (dose: 100.0 mg/kg/injection, schedule: Q01DX001 (ip), vehicle: saline with Tween-80): 94 % of control
T/C (dose: 200.0 mg/kg/injection, schedule: Q01DX001 (ip), vehicle: saline with Tween-80): 108 % of control
T/C (dose: 400.0 mg/kg/injection, schedule: Q01DX001 (ip), vehicle: saline with Tween-80): 99 % of control

NC(=S)N/N=C/c1cc(Cl)sc1Cl
T/C [8]: 102 % of control
T/C [11]: 98 % of control
T/C [12]: 96 % of control

CN(C)/C=C/C(=O)c1ccccc1
T/C [1]: 107 % of control
T/C [2]: 101 % of control
T/C [3]: 102 % of control

COc1ccc(S(=O)(=O)N/N=C/c2cc([N+](=O)[O-])cc(I)c2O)cc1
T/C [8]: 101 % of control
T/C [11]: 100 % of control
T/C [12]: 117 % of control

COc1ccc(CS(=O)(=O)c2cncnc2N)cc1OC
T/C (dose: 100.0 mg/kg/injection, schedule: Q01DX001 (ip), vehicle: saline): 106 % of control
T/C (dose: 200.0 mg/kg/injection, schedule: Q01DX001 (ip), vehicle: saline): 96 % of control
T/C (dose: 400.0 mg/kg/injection, schedule: Q01DX001 (ip), vehicle: saline): 101 % of control

OCC1OC2NC(=S)OC2C1O (centres undefined)
T/C [4]: 100 % of control
T/C [5]: 100 % of control
T/C [13]: 95 % of control

OCC1OC(Oc2ccc(O)cc2)C(O)C(O)C1O (centres undefined)
T/C (dose: 4.5 mg/kg/injection, schedule: Q01DX009 (ip), vehicle: Klucel (hydroxypropylcellulose) (HPC)): 97 % of control
T/C (dose: 9.0 mg/kg/injection, schedule: Q01DX009 (ip), vehicle: Klucel (hydroxypropylcellulose) (HPC)): 90 % of control
T/C (dose: 18.0 mg/kg/injection, schedule: Q01DX009 (ip), vehicle: Klucel (hydroxypropylcellulose) (HPC)): 90 % of control
T/C (dose: 36.0 mg/kg/injection, schedule: Q01DX009 (ip), vehicle: Klucel (hydroxypropylcellulose) (HPC)): 98 % of control
T/C [4]: 102 % of control
T/C [5]: 102 % of control
T/C [13]: 102 % of control
T/C (dose: 400.0 mg/kg/injection, schedule: Q01DX009 (ip), vehicle: saline): 106 % of control

CCOC(=O)C1(COS(=O)(=O)c2ccc(C)cc2)C(=O)Nc2ccccc21 (centres undefined)
T/C (dose: 50.0 mg/kg/injection, schedule: Q01DX009 (ip), vehicle: Klucel (hydroxypropylcellulose) (HPC)): 100 % of control
T/C (dose: 100.0 mg/kg/injection, schedule: Q01DX009 (ip), vehicle: Klucel (hydroxypropylcellulose) (HPC)): 100 % of control
T/C (dose: 200.0 mg/kg/injection, schedule: Q01DX009 (ip), vehicle: Klucel (hydroxypropylcellulose) (HPC)): 97 % of control

CCOC(=O)C1NC(=O)C(C)NC1=O (centres undefined)
T/C (dose: 60.0 mg/kg/injection, schedule: Q01DX005 (ip), vehicle: Klucel (hydroxypropylcellulose) (HPC)): 103 % of control
T/C (dose: 120.0 mg/kg/injection, schedule: Q01DX005 (ip), vehicle: Klucel (hydroxypropylcellulose) (HPC)): 107 % of control
T/C (dose: 240.0 mg/kg/injection, schedule: Q01DX005 (ip), vehicle: Klucel (hydroxypropylcellulose) (HPC)): 100 % of control

CC(C)(C)C1CCS(=O)(=O)CC1.[Cl][Hg][Cl]
T/C (dose: 0.25 mg/kg/injection, schedule: Q01DX009 (ip), vehicle: saline): 109 % of control
T/C (dose: 0.5 mg/kg/injection, schedule: Q01DX009 (ip), vehicle: saline): 95 % of control
T/C (dose: 1.0 mg/kg/injection, schedule: Q01DX009 (ip), vehicle: saline): 90 % of control

CCOC(=O)Cc1ccc2c(c1)sc1nc(-c3ccc(OC)cc3)cn12
T/C (dose: 50.0 mg/kg/injection, schedule: Q01DX009 (ip), vehicle: DMSO): 104 % of control
T/C (dose: 100.0 mg/kg/injection, schedule: Q01DX009 (ip), vehicle: DMSO): 103 % of control
T/C (dose: 200.0 mg/kg/injection, schedule: Q01DX009 (ip), vehicle: DMSO): 94 % of control

COC(=O)C1=C(C(=O)OC)C2CCCOC2=C(C)C1 (centres undefined)
T/C [8]: 96 % of control
T/C [11]: 95 % of control
T/C [12]: 93 % of control

Nc1cccc2cccnc12 (tested in a mixture with another compound)
T/C (dose: 6.25 mg/kg/injection, schedule: Q01DX009 (ip), vehicle: saline with Tween-80): 97 % of control
T/C (dose: 12.5 mg/kg/injection, schedule: Q01DX009 (ip), vehicle: saline with Tween-80): 103 % of control
T/C (dose: 25.0 mg/kg/injection, schedule: Q01DX009 (ip), vehicle: saline with Tween-80): 106 % of control
T/C (dose: 50.0 mg/kg/injection, schedule: Q01DX009 (ip), vehicle: saline with Tween-80): 104 % of control

O=C1c2c(O)cccc2C(C2OC(CO)C(O)C(O)C2O)c2cc(CO)cc(O)c21 (centres undefined)
T/C (dose: 25.0 mg/kg/injection, schedule: Q01DX005 (ip), vehicle: Klucel (hydroxypropylcellulose) (HPC)): 101 % of control
T/C (dose: 50.0 mg/kg/injection, schedule: Q01DX001 (ip), vehicle: water): 104 % of control
T/C [9]: 104 % of control and 107 % of control
T/C (dose: 100.0 mg/kg/injection, schedule: Q01DX001 (ip), vehicle: water): 104 % of control
T/C [10]: 117 % of control and 110 % of control
T/C (dose: 200.0 mg/kg/injection, schedule: Q01DX001 (ip), vehicle: water): 104 % of control

O=C1NC(=O)[C@H]2C3C=CC([C@@H]12)[C@@H]1C(=O)NC(=O)[C@H]31
T/C (dose: 25.0 mg/kg/injection, schedule: Q01DX009 (ip), vehicle: water): 105 % of control
T/C (dose: 50.0 mg/kg/injection, schedule: Q01DX009 (ip), vehicle: water): 100 % of control
T/C (dose: 100.0 mg/kg/injection, schedule: Q01DX009 (ip), vehicle: water): 97 % of control
T/C (dose: 200.0 mg/kg/injection, schedule: Q01DX009 (ip), vehicle: water): 92 % of control

[O-][N+]12CCCCC1C1CC(C2)C2CCCC(c3ccccc3)N2C1 (centres undefined)
T/C (dose: 12.5 mg/kg/injection, schedule: Q01DX009 (ip), vehicle: Klucel (hydroxypropylcellulose) (HPC)): 101 % of control and 105 % of control and 116 % of control
T/C (dose: 25.0 mg/kg/injection, schedule: Q01DX009 (ip), vehicle: Klucel (hydroxypropylcellulose) (HPC)): 103 % of control and 112 % of control and 114 % of control

CCC(C)B1N(c2ccccc2)N=NN1C(C)(C)C (centres undefined)
T/C [1]: 97 % of control
T/C [2]: 97 % of control
T/C [3]: 105 % of control

Cc1cc(=O)[nH]c2c(C)cccc12
T/C [6]: 96 % of control
T/C [7]: 98 % of control
T/C (dose: 400.0 mg/kg/injection, schedule: Q04DX003 (ip), vehicle: Klucel (hydroxypropylcellulose) (HPC)): 99 % of control
